These results are taken from patent publication US12558348B2, “Bioactive phytochemicals” (Phytoquest Limited, priority 2019, dated 2026).

One may read the inhibition as the percentage by which the read-out fell short of the control. The low end stands for a weak effect, the high end for a strong effect. A word on the IC50: it is the point on the concentration scale where inhibition reaches its midpoint.

One test relates to CD44-HA binding. Description: CD44-HA (hyaluronic acid) binding activity in THP-1 cells by ELISA. Format: cell-based, human. The settings on record: for CD44-HA: LPS-stimulated THP-1; for % reduction in CD44-HA levels: vs LPS control. The protocol:
The THP-1 cells were cultured in RPMI media supplemented with mercaptoethanol & glutamine to get 80% confluence in the culture flask, then aspirated and centrifuged at 1500 rpm for 5 mins. The cell pellet was then resuspended in 1 ml of RPMI complete media and counted conventionally using a hemocytometer. The cells (5×106) were incubated with Phorbol 12-myristate 13-acetate (PMA) (10 ng/ml) in separate dishes to cause differentiation of the THP-1 cells. To determine the CD44-HA binding activity, THP-1 cells were pretreated for 1 hr with idoBR1 or cucumber extract-Q-actin (batch no. B17CF001) at the concentrations 100 μg/ml to 12.5 μg/ml and 200 μg/ml to 25 μg/ml respectively followed by 24 hr LPS (1 μg/ml) stimulation. Post incubation, the cell lysates were taken for further analysis.
Anti-CD44 monoclonal antibody (Invitrogen, 2 μg) was coated to each well in 96-well plates in 50 mM carbonate/bicarbonate buffer (pH 9.6) and incubated overnight at 4° C. The unbound antibodies were removed using PBS with 0.05% Tween 20 (PBS-T wash solution). The wells were blocked using 1% BSA and incubated for 1 hr at 37° C. The wells were washed thrice thoroughly using PBS-T wash solution by adding 200 μl into wells. 50 μl cell lysates were added to the wells and incubated for 1 hr at 37° C. The wells were then washed thrice by adding 200 μl of PBS-T by soaking the wells for 30 secs before each wash. Biotinylated-Hyaluronic acid (HA) antibody followed by Streptavidin-HRP was added to form an immune complex and incubated for 60 mins at 37° C. The solution was aspirated and the wells washed thrice with 200 μl wash solution by soaking the wells for 30 secs. 50 μl of both Chromogen A and Chromogen B was added to each well. The plate was incubated for 15 mins away from light at 37° C. The reaction was stopped by adding 50 μl Stop Solution and the absorbance was read at 450 nm.
On the technique in general: An ELISA detects its analyte on a solid surface through an enzyme-linked reagent.

For test [1], the system named is TNF-α. Description: Production of TNF-α by human monocytic cell line THP-1. Format: cell-based. Particulars: Homo sapiens, THP-1. The protocol: THP-1 cells are commercially available. Cultured cells can be placed in RPMI complete medium in microtitre plates (e.g. […] in 96 well plates) and after 24 hrs incubation, PMA (10 ng/mi) added to 96 well plate to differentiate THP-1 cells and to determine the effects on TNF-α and IL-10 production. The cells should be pre-treated with cucumber extract at, for example, 200 μg/ml to 25 μg/ml followed by 2 hr LPS (100 ng/ml) stimulation. Post incubation, the cell supernatant is aspirated from each of the wells into sterile micro centrifuge tubes and centrifuged at 1000 rpm for 2-3 mins to settle any cells if present. The cell supernatant is then used for evaluation of presence of TNF-α or IL-10 using ELISA. Sandwich ELISA plates coated with suitable antibody are widely available (e.g. R&D Systems, USA).
A second study indicated even greater activity for idoBR1 in human blood (significant at 0.01 μM) with pre-incubation. […] The data clearly indicate that idoBR1 can inhibit the production of TNF-α in human blood. Thus, it appears that it may be a potent anti-inflammatory agent. It also appears that it may be acting via a novel mechanism distinct from the steroid receptor pathways.

The subject of another test is phosphorylated ERK 42/44. Description: Western blot of phosphorylated ERK p42/44 in LPS-stimulated THP-1 cells. Format: cell-based, human. The settings on record: vs LPS = 1.00. The protocol: THP-1 cells were cultured in RPMI media supplemented with mercaptoethanol & glutamine to get 80% confluence in culture flasks, then they were aspirated and centrifuged at 1500 rpm for 5 mins. The cell pellet was then resuspended in 1 ml of RPMI complete media and counted conventionally using a hemocytometer. The cells (5×106) were incubated with PMA (10 ng/ml) in separate dishes to differentiate THP-1 cells. To determine the protein expression p38 & p42/44, THP-1 cells were pre-treated for 1 hr with idoBR1-100 μg/ml & 50 μg/ml and cucumber extract (Q-actin batch no. B17CF001)—200 μg/ml & 100 μg/ml, followed by 2 hr LPS (1 μg/ml) stimulation. Post incubation, the cells were harvested and whole protein was isolated.
Cell pellets were lysed, and the protein concentration was determined using the Bio-Rad protein determination assay (Bio-Rad). Total cell proteins were subjected to 8% polyacrylamide SDS gel electrophoresis followed by transfer onto polyvinylidene difluoride membranes (Thermoscientific). The membranes were probed with either mouse anti-phospho-p38 mAb (Thermoscientific) or mouse anti-phospho-p42/44 mAb (Thermoscientific), followed by horseradish peroxidase-conjugated goat anti-mouse polyclonal antibodies (Thermoscientific). All immunoblots were visualized by ECL (Amersham Biosciences).
Background: Immunoblotting shows a protein as a band on a membrane.

The test system of test [2] is TNF-α. Description: TNF-α production by LPS-stimulated BV-2 microglial cells. Format: cell-based, murine. The settings on record: 24 hours. The protocol: idoBR1 was used in cell cultures of murine microglial cell line BV-2 at 0, 20, 40 and 80 μg/ml plus and minus sub-optimal LPS. Production of TNF-α and nitrite was measured after 24 hours.

Marks after values point to notes of the source that are not given here.

As to `O=C(O)[C@@H]1NC[C@H](O)[C@@H](O)[C@@H]1O` [idoBR1, (2R,3R,4R,5S)-3,4,5-trihydroxypiperidine-2-carboxylic acid], the CD44-HA is recorded as 101.48 ng/mL in the test on CD44-HA binding (12.5 μg/mL), 94.93 ng/mL with CD44-HA binding (25 μg/mL), 88.43 ng/mL with CD44-HA binding (50 μg/mL) and 81.04 ng/mL with CD44-HA binding (100 μg/mL). Further, the “% reduction in CD44-HA levels” value is on record as 8.12% in the test with CD44-HA binding (12.5 μg/mL), 14.05% in the test on CD44-HA binding (25 μg/mL), 19.93% in the test on CD44-HA binding (50 μg/mL) and 26.62% in the test with CD44-HA binding (100 μg/mL). In the test with TNF-α [1] (10 μM), this compound registered an inhibition at 10 µM greater than 50%. The IC50 with TNF-α [1] (48 hr preincubation, read-out: IC50 for inhibition of the production of TNF-α by THP-1 cells) came to 0.027 µM. In addition, the results for the “Relative expression of p42/44” value in the test on phosphorylated ERK 42/44 (50 μg/ml) and in the test with phosphorylated ERK 42/44 (100 μg/ml) were 0.80 and 0.76, respectively. Besides, the TNF-α production is on record as 500** pg/ml with TNF-α [2] (20 μg/ml + LPS), 470** pg/ml with TNF-α [2] (40 μg/ml + LPS) and 410*** pg/ml in the test with TNF-α [2] (80 μg/ml + LPS).
